Data on one molecule can be found in patent US20060178408A1, “Nicotinamide derivatives useful as pde4 inhibitors” (priority 2003, published 2006).

SMILES strings stand for the structures.

This test has as its system TNFα release from human peripheral blood mononuclear cells. As to the kind of experiment: Inhibition of LPS-stimulated TNFα release from human peripheral blood mononuclear cells (TNFα screen, ELISA). The test is classed as cell-based. The conditions noted are these: LPS-stimulated human PBMC, 18 hours incubation, TNFα in supernatant by ELISA. The protocol: Venous blood is collected from healthy volunteers and the mononuclear cells purified by centrifugation through Histopaque (Ficoll) cushions. TNFα production from these cells is stimulated by addition of lipopolysaccharide. After 18 hours incubation in the presence of LPS, the cell supernatant is removed and the concentration of TNFα in the supernatant determined by ELISA.
For orientation: An ELISA detects its analyte on a solid surface through an enzyme-linked reagent.

Usually IC50 stands for the concentration that inhibits the measured activity by half. The low end stands for greater potency in that assay, the high end for weaker potency in that assay. The molecule `O=C(N[C@H]1CC[C@@H](NC(=O)c2cc(Cl)cc(Cl)c2O)CC1)c1cc(F)cnc1OC1CCSCC1` [Example 26, Syn-N-[4-(3,5-Dichloro-2-hydroxy-benzoylamino)-cyclohexyl]-5-fluoro-2-(tetrahydro-thiopyran-4-yloxy)-nicotinamide] registered an IC50 of 14 nM. That is a double-digit nanomolar value.
